Here are results for six molecules from US20030060511A1, “Method for treatment of ocular hypertension and glaucoma” (SUCAMPO AG, priority 2001, published 2003).

Assay [1] has as its system IOP in Normal Monkeys. In words: IOP in normal monkeys after single topical application of eye drops, saline in the other eye (Example 2). The class given is in vivo, cynomolgus monkeys. The following applies: 0.005% eye drops, 30 μL/eye, IOP measured up to 24 hours, compared to saline eye. Here is the method: Male cynomolgus monkeys (eight monkeys, body weights 3.0-4.5 kg) were used. To the right eyes of the monkeys, 30 μL/eye of 0.005% 13,14-dihydro-15-keto-18-phenyl-19,20-dinor-PGF2α-isopropyl ester eye drops or 0.005% 13,14-dihydro-15-keto-17-phenoxy-18,19,20-trinor-PGF2α-isopropyl ester eye drops were administered, and to the left eyes, 30 μL/eye of saline was administered. IOP of the animals were determined.
The animals were retained in the sitting position under systemic anesthesia with intramuscular injection of ketamine hydrochloride (Ketalar® 50, Sankyo Co. Ltd.) 7.5-10 mg/kg and their ocular surfaces were anesthetized with 0.4% oxybuprocaine hydrochloride (Benoxil® 0.4% solution, Santen Pharmaceuticals Co., Ltd.). After that, the IOP was measured with a pneumatonometer (Model 30 Classic, Mentor O & O, Inc.). The IOPs were measured before (0 hour) and at 2, 4, 8, 12 and 24 hours after the administration of test substances.
Changes of the IOP from that of time 0 (ΔIOP) obtained in the each test eyes ([…] eyes) were compared to those obtained in the vehicle administrated eyes (control group) at each measurement times.

Assay [2] has as its system IOP in Normal Monkeys. Briefly: IOP in normal monkeys after single topical application of eye drops (Example 1). In kind it is in vivo, cynomolgus monkeys. The following applies: for IOP lowering (change in IOP from time 0, ΔIOP): single administration, significant vs vehicle control (Dunnett's test). The procedure:
Male cynomolgus monkeys (eight monkeys, body weights 3.0-4.5 kg) were used. To the right eyes of the monkeys, 30 μL/eye of 0.005% 13,14-dihydro-15-keto-17-phenyl-18,19,20-trinor-PGF2α-isopropyl ester eye drops, 0.005% 13,14-dihydro-17-phenyl-18,19,20-trinor-PGF2α-isopropyl ester (latanoprost) eye drops or the vehicle was administered once with an interval of at least seven days, and the IOPs in the respective animals was measured.
The animals were retained in the sitting position under systemic anesthesia with intramuscular injection of ketamine hydrochloride (Ketalar® 50, Sankyo Co. Ltd.) 7.5-10 mg/kg and their ocular surfaces were anesthetized with 0.4% oxybuprocaine hydrochloride (Benoxil® 0.4% solution, Santen Pharmaceuticals Co., Ltd.). After that, the IOP was measured with a pneumatonometer (Model 30 Classic, Mentor O & O, Inc.). The IOP was measured before (0 hour) and at 2, 4, 8, 12 and 24 hours after the administration of the test substances.
Changes of the IOP from that of time 0 (ΔIOP) obtained in the each test groups were compared to that obtained in the vehicle-administered control group at each measurement times. Statistical analysis was made with the Dunnett's multiple comparison test. Critical rates less than 5% were evaluated to be statistically significant.

In another assay the target is FP receptor (Homo sapiens, UniProt P43088). The following applies: background art; cited from earlier work.

Each structure is given as a SMILES string.

FP receptor, sequence (P43088 whole entry): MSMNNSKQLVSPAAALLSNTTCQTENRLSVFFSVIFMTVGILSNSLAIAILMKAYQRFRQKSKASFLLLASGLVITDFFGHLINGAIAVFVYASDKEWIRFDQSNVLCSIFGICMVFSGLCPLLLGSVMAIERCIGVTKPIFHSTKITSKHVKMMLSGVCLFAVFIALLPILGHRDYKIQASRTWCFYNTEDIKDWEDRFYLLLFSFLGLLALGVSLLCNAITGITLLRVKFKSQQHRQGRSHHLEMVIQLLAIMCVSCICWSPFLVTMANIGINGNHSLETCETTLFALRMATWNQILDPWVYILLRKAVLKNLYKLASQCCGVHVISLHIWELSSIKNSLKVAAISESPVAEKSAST

With `CC(C)OC(=O)CCC/C=C\CC1C(O)CC(O)C1CCC(=O)CCOc1ccccc1` (stereo not drawn) [13,14-dihydro-15-keto-17-phenoxy-18,19,20-trinor-PGF2α-isopropyl ester], in the assay on IOP in Normal Monkeys [1], the “Duration of IOP lowering by single administration” value (“Duration of IOP lowering” for short) is “can lower the IOP and keep the low IOP throughout a day”.

Turning to `CC(C)OC(=O)CCC/C=C\C[C@@H]1[C@@H](CCC(=O)CCc2ccccc2)[C@H](O)C[C@@H]1O` [13,14-dihydro-15-keto-17-phenyl-18,19,20-trinor-PGF2α-isopropyl ester], the “Difference of ΔIOPs versus latanoprost group” value with IOP in Normal Monkeys [2] (0.005% eye drops each, at any time point of the measurement (2-24 hours)) is listed as “no significant difference”. Also, in the assay on IOP in Normal Monkeys [2] (0.005% eye drops, 30 μL/eye, IOP measured up to 24 hours), the “Duration of IOP lowering” value is “can lower the IOP and keep the low IOP throughout the day”. Further, the “IOP lowering (change in IOP from time 0, ΔIOP)” value with IOP in Normal Monkeys [2] (0.005% eye drops, 30 μL/eye, 4 hours after administration) amounted to 2.3±0.4 mmHg; in the assay with IOP in Normal Monkeys [2] (0.005% eye drops, 30 μL/eye, 8 hours after administration), 2.1±0.4 mmHg; with IOP in Normal Monkeys [2] (0.005% eye drops, 30 μL/eye, 12 hours after administration), 2.4±0.5 mmHg.

For the molecule `CC(C)OC(=O)CCC/C=C\CC1C(O)CC(O)C1CCC(=O)CCCc1ccccc1` (stereo not drawn) [13,14-dihydro-15-keto-18-phenyl-19,20-dinor-PGF2α-isopropyl ester], the “Duration of IOP lowering” value in the assay with IOP in Normal Monkeys [1] was “can lower the IOP and keep the low IOP throughout a day”.

For `CCCCC[C@H](O)/C=C/[C@@H]1[C@@H](C/C=C\CCCC(=O)O)[C@@H](O)C[C@H]1O` [PGF2α], the “Affinity with / effect on FP receptor” value at FP receptor was “strong affinity”.

As for `CCCCCCCC(=O)CC[C@@H]1[C@@H](C/C=C\CCCC(=O)OC(C)C)[C@@H](O)C[C@H]1O` [isopropyl unoprostone, 13,14-dihydro-15-keto-20-ethyl-PGF2α-isopropyl ester], the “Affinity with / effect on FP receptor” value on FP receptor is “substantially no effect”.

With `CC(C)OC(=O)CCC/C=C\C[C@@H]1[C@@H](CC[C@@H](O)CCc2ccccc2)[C@H](O)C[C@@H]1O` [latanoprost, 13,14-dihydro-17-phenyl-18,19,20-trinor-PGF2α-isopropyl ester], the “Affinity with / effect on FP receptor” value on FP receptor is given as “strong affinity”.
